From patent US10766865B2, “PKM2 modulators and methods for their use” (TOLERO PHARMACEUTICALS, INC., priority 2012, dated 2020)
Read-outs that look alike come from different tables or passages of the source.

Legend:
[1] = test system: PC3 cells; experiment: Cell Proliferation Assay, PC3; format: cell-based; conditions: Homo sapiens, PC-3; PC3, BME media lacking nonessential amino acids, 72 hours, ATPlite; read-out: Percent viability (EC50), Average
Procedure: (§1) Cells were seeded at 5000 cells per well (in 96-well plate) in BME media lacking nonessential amino acids+5% dialyzed serum. After 18 hours, DMSO or compound in 0.1% final concentration DMSO was added.
(§2) Percent viability (EC50) of A549 and PC3 cells was tested against certain exemplary compounds according to the above general procedures.

[2] = target: T1, PKM2 (Homo sapiens, UniProt P14618); experiment: PKM2 Biochemical Assay; conditions: for Max. Resp.: % maximum response in a biochemical assay as compared with Fructose 1,6-bisphosphate; for Emax: read-out: % FBP (extent of maximal activation, relative to FBP); for Maximal PKM2 activity: relative to activity in DMSO controls (normalized to 100%), FIG. 1B
Target sequence in this assay (P14618 whole entry): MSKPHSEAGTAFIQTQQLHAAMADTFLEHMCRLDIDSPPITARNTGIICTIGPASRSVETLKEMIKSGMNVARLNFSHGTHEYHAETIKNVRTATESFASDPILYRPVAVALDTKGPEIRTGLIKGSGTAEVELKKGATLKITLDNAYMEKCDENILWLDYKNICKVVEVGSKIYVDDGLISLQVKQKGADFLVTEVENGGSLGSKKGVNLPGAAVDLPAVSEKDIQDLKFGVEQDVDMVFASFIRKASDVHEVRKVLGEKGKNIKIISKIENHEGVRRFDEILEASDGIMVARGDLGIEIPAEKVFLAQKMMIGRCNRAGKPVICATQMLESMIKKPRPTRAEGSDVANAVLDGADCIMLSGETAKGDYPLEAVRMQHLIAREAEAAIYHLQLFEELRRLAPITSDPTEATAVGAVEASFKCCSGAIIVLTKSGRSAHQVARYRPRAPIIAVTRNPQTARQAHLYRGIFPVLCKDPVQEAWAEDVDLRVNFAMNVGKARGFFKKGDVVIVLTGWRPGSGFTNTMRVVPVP
Procedure: Full length, human PKM2 enzyme was obtained from Promab (Richmond, Calif.). All reagents, unless otherwise noted, were obtained from Sigma (St. Louis, Mo.).
Compounds were pre-incubated with 2 nM PKM2 in reaction buffer (50 mM Tris-HCl, pH 8.0, 200 mM KCl, 30 mM MgCl2, 2 mM DTT, 5% DMSO) for 30 min at ambient temperature. […] After 30 min, ATP formation was measured by Kinase Glo (Promega, Madison, Wis.), and AC50 values were determined using Prism (GraphPad Software, Inc., La Jolla, Calif.).

[3] = test system: A549 cells; experiment: Cell Proliferation Assay, A549; format: cell-based; conditions: Homo sapiens; A549, BME media lacking nonessential amino acids, 72 hours, ATPlite; read-out: Percent viability (EC50), Average
Procedure: as §1, §2

[4] = target: T1, PKM2; experiment: Cell-Based Pyruvate Kinase Activity Assay, NCI-H1299; set-up: host or cells: A549 or NCI-H1299 lung cancer cells; conditions: NCI-H1299, 30 minutes with compound, n = 4; read-out: Cellular PKM2 activation EC50
Procedure: (§3) Cell-Based Pyruvate Kinase Activity Assay
(§4) A549 or NCI-H1299 lung cancer cells were plated at 20,000 cells per well (96-well plate) in MEM media plus 10% FBS, with no additional glutamine or pyruvate. Following overnight incubation, cells were washed with PBS followed by 4 hour incubation in MEM media. Compounds were added to the cells in 1% final concentration DMSO. After 30 minutes, cells were lysed, and pyruvate kinase activity in lysates was determined by Pyruvate Kinase Activity Assay (BioVision, Milpitas, Calif.). Maximum velocity values were calculated from the kinetic data, and AC50 values were determined using Prism GraphPad Software (La Jolla, Calif.). Compound washout experiments were as described above, except after a 30 minute incubation with Example 244 (469 nM), the cells were washed with PBS followed by the addition of MEM media for the indicated time period, lysed and pyruvate kinase activity determined. Results are tabulated in Table 3 and presented graphically in FIGS. 6A and 6B.
Target sequence in this assay (P14618 2-531 limits assumed): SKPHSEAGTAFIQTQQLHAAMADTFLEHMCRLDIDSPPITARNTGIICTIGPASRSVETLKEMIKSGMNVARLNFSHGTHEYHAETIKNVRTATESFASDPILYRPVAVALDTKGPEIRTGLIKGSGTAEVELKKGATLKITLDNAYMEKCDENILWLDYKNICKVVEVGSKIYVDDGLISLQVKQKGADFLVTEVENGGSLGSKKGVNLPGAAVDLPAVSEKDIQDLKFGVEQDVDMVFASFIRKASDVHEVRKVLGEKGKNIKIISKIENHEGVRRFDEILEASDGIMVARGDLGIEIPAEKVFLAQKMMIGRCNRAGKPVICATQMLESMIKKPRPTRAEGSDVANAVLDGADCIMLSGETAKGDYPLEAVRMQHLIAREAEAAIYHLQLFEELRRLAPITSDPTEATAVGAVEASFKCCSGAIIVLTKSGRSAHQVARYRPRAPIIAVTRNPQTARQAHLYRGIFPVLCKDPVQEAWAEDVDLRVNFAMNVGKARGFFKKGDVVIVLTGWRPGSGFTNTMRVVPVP

[5] = target: T1, PKM2; experiment: Cell-Based Pyruvate Kinase Activity Assay, A549; set-up: host or cells: A549 or NCI-H1299 lung cancer cells; conditions: A549, 30 minutes with compound, n = 4; read-out: Cellular PKM2 activation EC50
Procedure: as §3, §4
Target sequence in this assay (P14618 2-531 limits assumed): as above

[6] = read-out: AC50 (concentration of half-maximal PKM2 activation), Table 2, n = 6 to 10

| EC50 [1] [nM] | Max. Resp. [2] [%] | EC50 [3] [nM] | Structure (SMILES) | further results |
| --- | --- | --- | --- | --- |
| 383 | 89 | 188 | CO[C@H]1CC[C@H](N(Cc2ccccc2F)C(=O)c2cc(C(F)(F)F)n[nH]2)CC1 [Example 47, N-(2-FLUOROBENZYL)-N-(TRANS-4-METHOXYCYCLOHEXYL)-3-(TRIFLUOROMETHYL)-1H-PYRAZOLE-5-CARBOXAMIDE] | – |
| 193 | 93 | 102 | CO[C@H]1CC[C@H](N(Cc2cccc(N)c2)C(=O)c2cc(C(F)(F)F)n[nH]2)CC1 [Example 54] | – |
| 223 | 102 | 148 | O=C(c1cc(C(F)(F)F)n[nH]1)N(CCC1CCS(=O)(=O)CC1)Cc1ccccc1Cl [Example 75, N-(2-chlorobenzyl)-N-(2-(1,1-dioxidotetrahydro-2H-thiopyran-4-yl)ethyl)-3-(trifluoromethyl)-1H-pyrazole-5-carboxamide] | – |
| 1310 | 100 | 928 | O=C(c1cc(C(F)(F)F)n[nH]1)N(Cc1ccccc1Cl)CC1CCN1 (stereo not shown) [Example 227, N-(2-chlorobenzyl)-N-((azetidin-2-yl)methyl)-3-(trifluoromethyl)-1H-pyrazole-5-carboxamide] | – |
| 92.4 | 100 | 45.8 | Nc1cccc(Cl)c1CN(CCN1CCC(O)C1)C(=O)c1cc(C(F)(F)F)n[nH]1 (stereo not shown) [Example 234, N-(2-amino-6-chlorobenzyl)-3-(trifluoromethyl)-N-(2-(3-hydroxypyrrolidin-1-yl)ethyl)-1H-pyrazole-5-carboxamide] | – |
| – | 100 | – | COC1CCN(CCN(Cc2c(N)cccc2Cl)C(=O)c2cc(C(F)(F)F)n[nH]2)C1 (stereo not shown) [Example 235, N-(2-amino-6-chlorobenzyl)-3-(trifluoromethyl)-N-(2-(3-methoxypyrrolidin-1-yl)ethyl)-1H-pyrazole-5-carboxamide] | – |
| 33 | 73 | 8.1 | Nc1cccc(Cl)c1CN(CCN1CCCC(F)C1)C(=O)c1cc(C(F)(F)F)n[nH]1 (stereo not shown) [Example 236, N-(2-amino-6-chlorobenzyl)-3-(trifluoromethyl)-N-(2-(3-fluoropiperidin-1-yl)ethyl)-1H-pyrazole-5-carboxamide] | – |
| – | 100 | – | COC1CCCN(CCN(Cc2c(N)cccc2Cl)C(=O)c2cc(C(F)(F)F)n[nH]2)C1 (stereo not shown) [Example 237, N-(2-amino-6-chlorobenzyl)-3-(trifluoromethyl)-N-(2-(3-methoxypiperidin-1-yl)ethyl)-1H-pyrazole-5-carboxamide] | – |
| – | 100 | – | CCCN(CC)CCN(Cc1c(N)cccc1F)C(=O)c1cc(C(F)(F)F)n[nH]1 [Example 240, N-(2-fluoro-6-aminobenzyl)-N-(2-(ethyl-propylamino)ethyl)-3-(trifluoromethyl)-1H-pyrazole-5-carboxamide] | – |
| – | 100 | – | Nc1cccc(Cl)c1CN(CCN1CC[C@H](F)C1)C(=O)c1cc(C(F)(F)F)n[nH]1 [Example 241, N-(2-amino-6-chlorobenzyl)-3-(trifluoromethyl)-N-(2-((S)-3-fluoropyrrolidin-1-yl)ethyl)-1H-pyrazole-5-carboxamide] | – |
| – | 100 | – | Nc1cccc(Cl)c1CN(CCN1CC[C@@H](F)C1)C(=O)c1cc(C(F)(F)F)n[nH]1 [Example 242, N-(2-amino-6-chlorobenzyl)-3-(trifluoromethyl)-N-(2-((R)-3-fluoropyrrolidin-1-yl)ethyl)-1H-pyrazole-5-carboxamide] | – |
| – | 100 | – | Nc1cccc(Cl)c1CN(CCN1CCCC(F)CC1)C(=O)c1cc(C(F)(F)F)n[nH]1 (stereo not shown) [Example 243, N-(2-amino-6-chlorobenzyl)-N-(2-(4-fluoroazepan-1-yl)ethyl)-3-(trifluoromethyl)-1H-pyrazole-5-carboxamide] | – |
| – | – | – | O=C(c1cc(Cl)n[nH]1)N(Cc1ccc(O)cc1F)CC1CCC1 [Example 244, N-(2-fluoro-4-hydroxybenzyl)-3-chloro-N-(cyclobutylmethyl)-1H-pyrazole-5-carboxamide] | Emax [2]: 107 ± 10%; AC50 [2, 6]: 62 ± 23 nM; Maximal PKM2 activity [2]: approximately 600%; EC50 [4]: 300 ± 70 nM; EC50 [5]: 450 ± 180 nM |
| – | 100 | – | O=C(c1cc(Br)n[nH]1)N(Cc1ccc(O)cc1F)CC1CCC1 [Example 245] | – |
| – | 85 | – | O=C(c1cc(C2CC2)n[nH]1)N(Cc1ccc(O)cc1F)CC1CCC1 [Example 246] | AC50 ([2]; read-out: PKM2 AC50, 2 nM PKM2, 75 μM ADP, 15 μM PEP, Kinase Glo): 92 nM |
| – | – | – | O=C(COP(=O)(O)O)[C@@H](O)[C@H](O)[C@H](O)COP(=O)(O)O [FBP, fructose-1,6-bisphosphate, reference compound] | Emax [2]: 100%; AC50 [2, 6]: 23 ± 8 nM; Maximal PKM2 activity [2]: approximately 600% |

| Structure (SMILES) | EC50 [1] [nM] | Max. Resp. [2] [%] | EC50 [3] [nM] | further results |
| --- | --- | --- | --- | --- |
| O=C(c1cc(C(F)(F)F)n[nH]1)N(CCC1CCS(=O)(=O)C1)Cc1ccccc1Cl (stereo not shown) [Example 62, N-(2-chlorobenzyl)-N-(2-(1,1-dioxidotetrahydrothiophen-3-yl)ethyl)-3-(trifluoromethyl)-1H-pyrazole-5-carboxamide] | 166 | 105 | 108 | – |
| Nc1cccc(F)c1CN(CCC1CCS(=O)(=O)CC1)C(=O)c1cc(C(F)(F)F)n[nH]1 [Example 91, N-(2-amino-6-fluorobenzyl)-N-(2-(1,1-dioxidotetrahydro-2H-thiopyran-4-yl)ethyl)-3-(trifluoromethyl)-1H-pyrazole-5-carboxamide] | 47.3 | – | 20.3 | – |
| CCCN(CC)CCN(Cc1c(N)cccc1Cl)C(=O)c1cc(C(F)(F)F)n[nH]1 [Example 223, N-(2-chloro-6-aminobenzyl)-N-(2-(ethyl-propylamino)ethyl)-3-(trifluoromethyl)-1H-pyrazole-5-carboxamide] | 54 | 100 | 33.5 | – |
| Nc1cccc(Cl)c1CN(CCN1CCCOCC1)C(=O)c1cc(C(F)(F)F)n[nH]1 [Example 239, N-(2-(1,4-oxazepan-4-yl)ethyl)-N-(2-amino-6-chlorobenzyl)-3-(trifluoromethyl)-1H-pyrazole-5-carboxamide] | 129 | 100 | 73.1 | – |
